These compounds were tested on genotype A, "Long" strain RSV (assay: RSV-A assay: CPE protection in HEp-2 cells, ATPlite readout). Conditions: human respiratory syncytial virus, HEp-2, read-out: Human RSV-A (“Long” strain) EC50.
Type: cell-based, human respiratory syncytial virus
Method in brief: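 HEp-2 cells (8,000/well) with 2-fold compound dilutions in duplicate, infected with Long-strain RSV at MOI 0.1 and incubated 5 days. Cell ATP measured by ATPlite luminescence to give EC50; uninfected parallel plate gives CC50.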

| Structure (SMILES) | EC50 [nM] |
| --- | --- |
| CC(C)(O)CNc1cc(C(F)(F)F)cnc1-c1nnc(N[C@H]2N=C(c3ccccc3)c3ccccc3NC2=O)o1 [Example 297] | < 400 |
| COCCn1c(-c2nnc(N[C@H]3N=C(c4ccccc4)c4ccccc4NC3=O)o2)nc2ccccc21 [Example 298] | > 800 |
| O=C1Nc2ccccc2C(c2ccccc2)=N[C@@H]1Nc1nnc(-c2ncc(F)cc2N2CC3CCC(C2)O3)o1 [Example 299] | < 400 |
| C[C@@H]1COCCN1c1cc(C#N)cnc1-c1nnc(N[C@H]2N=C(c3ccccc3)c3ccccc3NC2=O)o1 [Example 301] | < 400 |
| CN(C)c1cc(C(F)(F)F)cnc1-c1nnc(N[C@H]2N=C(c3ccccc3)c3ccccc3NC2=O)o1 [Example 302] | > 800 |
| COCCNc1cc(C(F)(F)F)cnc1-c1nnc(N[C@H]2N=C(c3ccccc3)c3ccccc3NC2=O)o1 [Example 305] | < 400 |
| COCCn1ccnc1-c1nnc(N[C@H]2N=C(c3ccccc3)c3ccccc3NC2=O)o1 [Example 306] | > 800 |
| CNc1cc(C(F)(F)F)cnc1-c1nnc(N[C@H]2N=C(c3ccccc3)c3ccccc3NC2=O)o1 [Example 307] | > 800 |
| CN(CC(C)(C)O)c1cc(C(F)(F)F)cnc1-c1nnc(N[C@H]2N=C(c3ccccc3)c3ccccc3NC2=O)o1 [Example 308] | > 800 |
| N#Cc1ccc(-c2nnc(N[C@H]3N=C(c4ccccc4)c4ccccc4NC3=O)o2)c(-c2ccsc2)c1 [Example 309] | > 800 |
| COCCn1nccc1-c1nnc(N[C@H]2N=C(c3ccccc3)c3ccccc3NC2=O)o1 [Example 310] | > 800 |
| C#Cc1cnc(-c2nnc(N[C@H]3N=C(c4ccccc4)c4ccccc4NC3=O)o2)c(N2CCOCC2)c1 [Example 311] | < 400 |
| O=C1Nc2ccccc2C(c2ccccc2)=N[C@@H]1Nc1nnc(-c2ncc(C3=CCCCC3)cc2N2CCOCC2)o1 [Example 312] | 400 to 800 |
| O=C1Nc2ccccc2C(c2ccccc2)=N[C@@H]1Nc1nnc(-c2ncc(C3CCCCC3)cc2N2CCOCC2)o1 [Example 313] | < 400 |
| O=C1Nc2ccccc2C(c2ccccc2)=N[C@@H]1Nc1nnc(-c2ncc(N3CCCC3)cc2N2CCOCC2)o1 [Example 314] | < 400 |
| Cn1cc(-c2cc(C#N)ccc2-c2nnc(N[C@H]3N=C(c4ccccc4)c4ccccc4NC3=O)o2)ccc1=O [Example 315] | > 800 |
| O=C1Nc2ccccc2C(c2ccccc2)=N[C@@H]1Nc1nnc(-c2ncc3ccccc3c2N2CCOCC2)o1 [Example 316] | > 800 |
| O=C1Nc2ccccc2C(c2ccccc2)=N[C@@H]1Nc1nnc(-c2ccc(N3CCCC3)cc2N2CCOCC2)o1 [Example 317] | < 400 |
| O=C1Nc2ccccc2C(c2ccccc2)=N[C@@H]1Nc1nnc(-c2nc(C3CC3)ccc2N2CCOCC2)o1 [Example 318] | < 400 |
| N#Cc1ccc(-c2nnc(N[C@H]3N=C(c4ccccc4)c4ccccc4NC3=O)o2)c(-c2ccoc2)c1 [Example 319] | > 800 |
| Cc1noc(C)c1-c1cc(C#N)ccc1-c1nnc(N[C@H]2N=C(c3ccccc3)c3ccccc3NC2=O)o1 [Example 320] | > 800 |
| O=C1Nc2ccccc2C(c2ccccc2)=N[C@@H]1Nc1nnc(-c2ncc(C3CC3)cc2N2CC3CCC(C2)O3)o1 [Example 321] | < 400 |
| N#Cc1cc(N2CCOCC2)c(-c2nnc(N[C@H]3N=C(c4ccccc4)c4ccccc4NC3=O)o2)s1 [Example 323] | < 400 |
| N#Cc1ccc(N2CCOCC2)c(-c2nnc(N[C@H]3N=C(c4ccccc4)c4ccccc4NC3=O)o2)n1 [Example 324] | < 400 |

| Structure (SMILES) | EC50 [nM] |
| --- | --- |
| N#Cc1cnc(-c2nnc(N[C@H]3N=C(c4ccccc4)c4ccccc4NC3=O)o2)c(N2CCOCC2)c1 [Example 325] | < 400 |
| C[C@@H]1CN(c2cc(C#N)cnc2-c2nnc(N[C@H]3N=C(c4ccccc4)c4ccccc4NC3=O)o2)CCO1 [Example 326] | 400 to 800 |
| CN1CCN(c2cc(C(F)(F)F)cnc2-c2nnc(N[C@H]3N=C(c4ccccc4)c4ccccc4NC3=O)o2)CC1 [Example 327] | 400 to 800 |
| O=C1Nc2ccccc2C(c2ccccc2)=N[C@@H]1Nc1nnc(-c2ncc(C(F)(F)F)cc2N2CCC(O)CC2)o1 [Example 328] | > 800 |
| C[C@H]1CN(c2cc(C#N)cnc2-c2nnc(N[C@H]3N=C(c4ccccc4)c4ccccc4NC3=O)o2)CCO1 [Example 329] | < 400 |
| Cc1cc(-c2nnc(N[C@H]3N=C(c4ccccc4)c4ccccc4NC3=O)o2)c(N2CCOCC2)s1 [Example 330] | < 400 |
| N#CCNc1cc(C(F)(F)F)cnc1-c1nnc(N[C@H]2N=C(c3ccccc3)c3ccccc3NC2=O)o1 [Example 331] | > 800 |
| CS(=O)(=O)c1cnc(-c2nnc(N[C@H]3N=C(c4ccccc4)c4ccccc4NC3=O)o2)c(N2CCOCC2)c1 [Example 332] | > 800 |
| N#Cc1cnc(-c2nnc(N[C@H]3N=C(c4ccccc4)c4ccccc4NC3=O)o2)c(N2C3CCC2COC3)c1 [Example 333] | 400 to 800 |
| COCCNc1sc(C)nc1-c1nnc(N[C@H]2N=C(c3ccccc3)c3ccccc3NC2=O)o1 [Example 335] | < 400 |
| Cc1nc(-c2nnc(N[C@H]3N=C(c4ccccc4)c4ccccc4NC3=O)o2)c(N2CCOCC2)o1 [Example 337] | < 400 |
| COc1ccccc1-c1nc(-c2nnc(N[C@H]3N=C(c4ccccc4)c4ccccc4NC3=O)o2)c(N2CCOCC2)s1 [Example 342] | < 400 |
| Cc1nc(-c2nnc(N[C@H]3N=C(c4ccccc4)c4ccccc4NC3=O)o2)cs1 [Example 343] | > 800 |
| Cc1nc(-c2nnc(N[C@H]3N=C(c4ccccc4)c4ccccc4NC3=O)o2)c(Cl)s1 [Example 344] | > 800 |
| Cc1nc(-c2nnc(N[C@H]3N=C(c4ccccc4)c4ccccc4NC3=O)o2)c(C2=CCOCC2)s1 [Example 345, (S)-3-((5-(5-(3,6-dihydro-2H-pyran-4-yl)-2-methylthiazol-4-yl)-1,3,4-oxadiazol-2-yl)amino)-5-phenyl-1,3-dihydro-2H-benzo[e][1,4]diazepin-2-one] | < 400 |
| Cc1nc(-c2nnc(N[C@H]3N=C(c4ccccc4)c4ccccc4NC3=O)o2)c(C2CCOCC2)s1 [Example 346, (S)-3-((5-(2-methyl-5-(tetrahydro-2H-pyran-4-yl)thiazol-4-yl)-1,3,4-oxadiazol-2-yl)amino)-5-phenyl-1,3-dihydro-2H-benzo[e][1,4]diazepin-2-one] | < 400 |
| O=C1Nc2ccccc2C(c2ccccc2)=N[C@@H]1Nc1nnc(-c2ncsc2C2=CCOCC2)o1 [Example 347] | < 400 |
| O=C1Nc2ccccc2C(c2ccccc2)=N[C@@H]1Nc1nnc(-c2occc2N2CCOCC2)o1 [Example 348] | < 400 |
| O=C1Nc2ccccc2C(c2ccccc2)=N[C@@H]1Nc1nnc(-c2ccnn2-c2ccccc2)o1 [Example 349] | > 800 |
| O=C1Nc2ccccc2C(c2ccccc2)=N[C@@H]1Nc1nnc(-c2cnn(-c3ccccc3)c2)o1 [Example 350] | 400 to 800 |
| O=C1Nc2ccccc2C(c2ccccc2)=NC1Nc1nnc(-c2ccccc2C2=CCOCC2)o1 (centres unmarked) [Example 353, 3-((5-(2-(3,6-dihydro-2H-pyran-4-yl)phenyl)-1,3,4-oxadiazol-2-yl)amino)-5-phenyl-1,3-dihydro-2H-benzo[e][1,4]diazepin-2-one] | > 800 |
| O=C1Nc2ccccc2C(c2ccccc2)=NC1Nc1nnc(-c2ccccc2C2CCOCC2)o1 (centres unmarked) [Example 354] | > 800 |
| O=C1Nc2c(F)cccc2C(c2ccccc2)=N[C@H]1Nc1nnc(-c2ccccc2N2CCOCC2)o1 [Example 355b] | > 800 |
